{"source": "paper PMC3407089", "about": "“Influence of GABAA Receptor α Subunit Isoforms on the Benzodiazepine Binding Site” (PLoS ONE, 2012)", "key": {"[1]": {"biological_target": "T1, α1S205Cβ2γ2 GABAA receptor (Rattus norvegicus, UniProt P18508+P62813, S232C)", "T1 sequence (P62813 28-455 S232C)": "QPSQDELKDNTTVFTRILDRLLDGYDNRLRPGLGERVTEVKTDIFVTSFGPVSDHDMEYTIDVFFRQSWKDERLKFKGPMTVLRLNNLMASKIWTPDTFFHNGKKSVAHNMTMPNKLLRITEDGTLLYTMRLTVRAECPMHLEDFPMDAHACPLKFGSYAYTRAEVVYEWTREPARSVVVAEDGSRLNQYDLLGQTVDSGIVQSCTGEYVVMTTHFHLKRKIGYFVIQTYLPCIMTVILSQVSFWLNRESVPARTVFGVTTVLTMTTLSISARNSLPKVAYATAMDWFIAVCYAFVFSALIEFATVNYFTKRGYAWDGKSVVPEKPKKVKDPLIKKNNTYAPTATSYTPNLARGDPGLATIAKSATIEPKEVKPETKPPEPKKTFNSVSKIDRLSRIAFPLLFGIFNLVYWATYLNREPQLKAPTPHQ", "T1 sequence (P18508 39-466)": "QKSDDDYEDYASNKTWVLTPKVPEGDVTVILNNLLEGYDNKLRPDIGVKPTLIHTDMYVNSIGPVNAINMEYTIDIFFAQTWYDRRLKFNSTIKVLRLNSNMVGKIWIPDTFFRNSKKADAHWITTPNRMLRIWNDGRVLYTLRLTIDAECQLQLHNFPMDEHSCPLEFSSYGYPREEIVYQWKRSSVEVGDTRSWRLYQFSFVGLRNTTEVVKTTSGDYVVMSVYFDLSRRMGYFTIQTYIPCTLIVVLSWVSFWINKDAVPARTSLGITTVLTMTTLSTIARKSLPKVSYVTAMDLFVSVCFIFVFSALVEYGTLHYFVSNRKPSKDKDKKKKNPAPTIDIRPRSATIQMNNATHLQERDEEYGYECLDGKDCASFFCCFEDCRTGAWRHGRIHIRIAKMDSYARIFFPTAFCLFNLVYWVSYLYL", "T1 sequence (P63138 26-474 partner)": "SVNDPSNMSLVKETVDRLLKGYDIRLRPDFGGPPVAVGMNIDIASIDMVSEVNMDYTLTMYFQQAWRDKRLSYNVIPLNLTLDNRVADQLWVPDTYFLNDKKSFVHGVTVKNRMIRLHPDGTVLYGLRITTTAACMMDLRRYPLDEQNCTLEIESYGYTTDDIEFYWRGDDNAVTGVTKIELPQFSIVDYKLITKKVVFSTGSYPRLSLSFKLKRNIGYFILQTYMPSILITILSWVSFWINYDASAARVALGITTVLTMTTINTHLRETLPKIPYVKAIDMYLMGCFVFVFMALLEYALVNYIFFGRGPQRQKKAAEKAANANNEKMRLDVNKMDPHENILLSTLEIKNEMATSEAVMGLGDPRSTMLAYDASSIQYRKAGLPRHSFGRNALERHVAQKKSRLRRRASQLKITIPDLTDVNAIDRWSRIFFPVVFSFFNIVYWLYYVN", "assay": "Covalent reaction at the functional level (two-electrode voltage clamp, Xenopus oocytes)", "format": "cell-based", "conditions": "after 10 µM 3-NCS and removal of non-covalently reacted 3-NCS; read-out: % allosteric modulation, 3-NCS", "protocol": "(§1) Capped cRNAs were synthesized (Ambion, Austin, TX, USA) from the linearized plasmids with a cytomegalovirus promotor (pCMVvectors) containing the different subunits, respectively. A poly-A tail of about 400 residues was added to each transcript using yeast poly- A polymerase (United States Biologicals, Cleveland, OH, USA). The concentration of the cRNA was quantified on a formaldehyde gel using Radiant Red stain (Bio-Rad) for visualization of the RNA. Known concentrations of RNA ladder (Invitrogen) were loaded as standard on the same gel. cRNAs were precipitated in ethanol/isoamylalcohol 19∶ 1, the dried pellet dissolved in water and stored at −80°C. cRNA mixtures were prepared from these stock solutions and stored at −80°C. Xenopus laevis oocytes were prepared, injected and defolliculated as described previously, [39]. They were injected with 50 nL of the cRNA solution containing wild type or mutated α1 or α2, α3, α5, α6 and wild type β2 and γ2 subunits at a concentration of 10 nM : 10 nM : 50 nM [40] and then incubated in modified Barth’s solution at +18°C for at least 24 h before the measurements.\n(§2) Tests with a model oocyte were performed to ensure linearity in the larger current range.\n(§3) Electrophysiological experiments were performed by using the two-electrode voltage clamp method at a holding potential of −80 mV. The perfusion medium contained 90 mM NaCl, 1 mM KCl, 1 mM MgCl2, 1 mM CaCl2, and 5 mM Na-HEPES (pH 7.4) and was applied by gravity flow 6 ml/min. The perfusion medium was applied through a glass capillary with an inner diameter of 1.35 mm, the mouth of which was placed about 0.4 mm from the surface of the oocyte. Allosteric modulation via the benzodiazepine site was measured at a GABA concentration eliciting 2–5% of the maximal GABA current amplitude."}, "[2]": {"biological_target": "T2, α1T206Cβ2γ2 GABAA receptor (Rattus norvegicus, UniProt P18508+P62813, T233C)", "T2 sequence (P62813 28-455 T233C)": "as the sequence (P62813 28-455 S232C) above, with C205S, T206C counted along it", "T2 sequence (P18508 39-466)": "as the sequence (P18508 39-466) above", "T2 sequence (P63138 26-474 partner)": "as the sequence (P63138 26-474 partner) above", "assay": "Covalent reaction at the functional level (two-electrode voltage clamp, Xenopus oocytes)", "format": "cell-based", "conditions": "after 10 µM 3-NCS and removal of non-covalently reacted 3-NCS; read-out: % allosteric modulation, 3-NCS", "protocol": "as §1, §2, §3"}, "[3]": {"biological_target": "α2S204Cβ2γ2 GABAA receptor (Rattus norvegicus, UniProt P18508+P23576, S232C)", "sequence (P23576 29-451 S232C)": "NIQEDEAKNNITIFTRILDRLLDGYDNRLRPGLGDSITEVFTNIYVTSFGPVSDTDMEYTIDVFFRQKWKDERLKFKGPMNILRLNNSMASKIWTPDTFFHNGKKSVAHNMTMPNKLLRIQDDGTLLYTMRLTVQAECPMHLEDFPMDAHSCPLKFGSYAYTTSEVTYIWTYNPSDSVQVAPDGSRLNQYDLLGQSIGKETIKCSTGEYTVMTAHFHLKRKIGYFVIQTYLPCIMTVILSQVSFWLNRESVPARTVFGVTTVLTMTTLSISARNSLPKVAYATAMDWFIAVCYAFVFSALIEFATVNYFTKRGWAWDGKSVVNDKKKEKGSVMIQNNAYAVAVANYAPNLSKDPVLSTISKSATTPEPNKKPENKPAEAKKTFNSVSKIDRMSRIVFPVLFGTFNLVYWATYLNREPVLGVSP", "sequence (P18508 39-466)": "as the sequence (P18508 39-466) above", "sequence (P63138 26-474 partner)": "as the sequence (P63138 26-474 partner) above", "assay": "Covalent reaction at the functional level (two-electrode voltage clamp, Xenopus oocytes)", "format": "cell-based", "conditions": "after 10 µM 3-NCS and removal of non-covalently reacted 3-NCS; read-out: % allosteric modulation, 3-NCS", "protocol": "as §1, §2, §3"}, "[4]": {"biological_target": "α2S205Cβ2γ2 GABAA receptor (Rattus norvegicus, UniProt P18508+P23576, S233C)", "sequence (P23576 29-451 S233C)": "as the sequence (P23576 29-451 S232C) above, with C204S, S205C counted along it", "sequence (P18508 39-466, stated change not applied)": "as the sequence (P18508 39-466) above", "sequence (P63138 26-474 partner)": "as the sequence (P63138 26-474 partner) above", "assay": "Covalent reaction at the functional level (two-electrode voltage clamp, Xenopus oocytes)", "format": "cell-based", "conditions": "after 10 µM 3-NCS and removal of non-covalently reacted 3-NCS; read-out: % allosteric modulation, 3-NCS", "protocol": "as §1, §2, §3"}, "[5]": {"biological_target": "α2T206Cβ2γ2 GABAA receptor (Rattus norvegicus, UniProt P18508+P23576, T234C)", "sequence (P23576 29-451 T234C)": "as the sequence (P23576 29-451 S232C) above, with C204S, T206C counted along it", "sequence (P18508 39-466)": "as the sequence (P18508 39-466) above", "sequence (P63138 26-474 partner)": "as the sequence (P63138 26-474 partner) above", "assay": "Covalent reaction at the functional level (two-electrode voltage clamp, Xenopus oocytes)", "format": "cell-based", "conditions": "after 10 µM 3-NCS and removal of non-covalently reacted 3-NCS; read-out: % allosteric modulation, 3-NCS", "protocol": "as §1, §2, §3"}, "α2β2γ2 receptors": {"biological_target": "T3, α2β2γ2 receptors (Rattus norvegicus, UniProt P18508+P23576)", "T3 construct": "expressed in transfected cells; host or cells: HEK293 cells (ATCC CRL 1573), membranes", "T3 sequence (P23576 29-451)": "as the sequence (P23576 29-451 S232C) above, with C204S counted along it", "T3 sequence (P63138 25-474 partner limits assumed)": "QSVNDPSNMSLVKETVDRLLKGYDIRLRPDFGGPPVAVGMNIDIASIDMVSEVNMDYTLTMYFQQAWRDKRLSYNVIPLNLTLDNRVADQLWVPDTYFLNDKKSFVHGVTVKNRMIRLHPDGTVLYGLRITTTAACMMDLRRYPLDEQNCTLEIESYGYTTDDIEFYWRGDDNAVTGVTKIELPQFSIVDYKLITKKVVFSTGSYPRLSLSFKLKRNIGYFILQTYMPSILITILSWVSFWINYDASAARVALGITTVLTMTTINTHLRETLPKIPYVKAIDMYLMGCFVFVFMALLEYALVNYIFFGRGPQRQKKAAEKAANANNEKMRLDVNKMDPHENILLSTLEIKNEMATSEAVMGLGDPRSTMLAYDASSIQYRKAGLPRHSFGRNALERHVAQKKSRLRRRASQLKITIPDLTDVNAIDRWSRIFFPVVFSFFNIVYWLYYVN", "T3 sequence (P18508 39-466)": "as the sequence (P18508 39-466) above", "assay": "Radioactive ligand binding / displacement of [^3H]Ro 15–1788", "protocol": "For α5 containing receptors β2 was replaced by β1. […] Culturing of cells and membrane preparation were done as described before.\nThe properties of the recombinant mutant receptors were only estimated. For this affinity estimate, membranes were re-suspended in phosphate buffer using a Teflon homogenizer. […] The final protein concentration was 0.1–1 mg of protein/ml. […] Membranes were collected by rapid vacuum filtration on GF/C filters. After three washing steps (3 sec each) with 5 ml of phosphate buffer, the filter-retained radioactivity was determined by liquid scintillation counting."}, "[6]": {"tested_on": "wild type GABAA receptors", "assay": "Covalent reaction at the functional level (two-electrode voltage clamp, Xenopus oocytes)", "format": "cell-based", "conditions": "all wild type receptors", "protocol": "as §1\n(§4) Currents were measured using a modified two-electrode voltage clamp amplifier Oocyte clamp OC-725 (Warner Instruments) in combination with a XY-recorder (90% response time 0.1s) or digitized at 100 Hz using a PowerLab 2/20 (AD Instruments) using the computer programs Chart (ADInstruments GmbH, Spechbach, Germany). Tests with a model oocyte were performed to ensure linearity in the larger current range. The response was linear up to 15 µA.\nas §3, with “amplitude. GABA was applied for 20 s alone or in combination with allosteric compound. 6 ml of the covalent reacting compound was applied to the oocyte and incubated for 3 min while stopping the flow of the perfusion medium. Modulation of GABA currents was expressed as (I(modulator + GABA)/IGABA –1) * 100%. The perfusion system was cleaned between drug applications by washing with DMSO to avoid contamination.” for “amplitude.”"}, "[7]": {"tested_on": "α1S204Cβ2γ2 GABAA receptor", "assay": "Covalent reaction at the functional level (two-electrode voltage clamp, Xenopus oocytes)", "format": "cell-based", "conditions": "after 10 µM 3-NCS and removal of non-covalently reacted 3-NCS", "protocol": "as §1, §4\nas §3, with “amplitude. GABA was applied for 20 s alone or in combination with allosteric compound. 6 ml of the covalent reacting compound was applied to the oocyte and incubated for 3 min while stopping the flow of the perfusion medium. Modulation of GABA currents was expressed as (I(modulator + GABA)/IGABA –1) * 100%. The perfusion system was cleaned between drug applications by washing with DMSO to avoid contamination.” for “amplitude.”"}, "[8]": {"tested_on": "α3S230Cβ2γ2 GABAA receptor", "assay": "Covalent reaction at the functional level (two-electrode voltage clamp, Xenopus oocytes)", "format": "cell-based", "conditions": "after 10 µM 3-NCS and removal of non-covalently reacted 3-NCS", "protocol": "as §1, §4\nas §3, with “amplitude. GABA was applied for 20 s alone or in combination with allosteric compound. 6 ml of the covalent reacting compound was applied to the oocyte and incubated for 3 min while stopping the flow of the perfusion medium. Modulation of GABA currents was expressed as (I(modulator + GABA)/IGABA –1) * 100%. The perfusion system was cleaned between drug applications by washing with DMSO to avoid contamination.” for “amplitude.”"}, "[9]": {"tested_on": "α3T231Cβ2γ2 GABAA receptor", "assay": "Covalent reaction at the functional level (two-electrode voltage clamp, Xenopus oocytes)", "format": "cell-based", "conditions": "after 10 µM 3-NCS and removal of non-covalently reacted 3-NCS", "protocol": "as §1, §4\nas §3, with “amplitude. GABA was applied for 20 s alone or in combination with allosteric compound. 6 ml of the covalent reacting compound was applied to the oocyte and incubated for 3 min while stopping the flow of the perfusion medium. Modulation of GABA currents was expressed as (I(modulator + GABA)/IGABA –1) * 100%. The perfusion system was cleaned between drug applications by washing with DMSO to avoid contamination.” for “amplitude.”"}, "[10]": {"tested_on": "α5S209Cβ2γ2 GABAA receptor", "assay": "Covalent reaction at the functional level (two-electrode voltage clamp, Xenopus oocytes)", "format": "cell-based", "conditions": "after 10 µM 3-NCS and removal of non-covalently reacted 3-NCS", "protocol": "as §1, §4\nas §3, with “amplitude. GABA was applied for 20 s alone or in combination with allosteric compound. 6 ml of the covalent reacting compound was applied to the oocyte and incubated for 3 min while stopping the flow of the perfusion medium. Modulation of GABA currents was expressed as (I(modulator + GABA)/IGABA –1) * 100%. The perfusion system was cleaned between drug applications by washing with DMSO to avoid contamination.” for “amplitude.”"}, "[11]": {"tested_on": "α5T208Cβ2γ2 GABAA receptor", "assay": "Covalent reaction at the functional level (two-electrode voltage clamp, Xenopus oocytes)", "format": "cell-based", "conditions": "after 10 µM 3-NCS and removal of non-covalently reacted 3-NCS", "protocol": "as §1, §4\nas §3, with “amplitude. GABA was applied for 20 s alone or in combination with allosteric compound. 6 ml of the covalent reacting compound was applied to the oocyte and incubated for 3 min while stopping the flow of the perfusion medium. Modulation of GABA currents was expressed as (I(modulator + GABA)/IGABA –1) * 100%. The perfusion system was cleaned between drug applications by washing with DMSO to avoid contamination.” for “amplitude.”"}, "[12]": {"tested_on": "T4, α5T210Cβ2γ2 GABAA receptor", "T4 construct": "expressed in transfected cells; host or cells: Xenopus laevis oocytes (cRNA injection)", "assay": "Covalent reaction at the functional level (two-electrode voltage clamp, Xenopus oocytes)", "format": "cell-based", "conditions": "after 10 µM 3-NCS and removal of non-covalently reacted 3-NCS", "protocol": "as §1, §4\nas §3, with “amplitude. GABA was applied for 20 s alone or in combination with allosteric compound. 6 ml of the covalent reacting compound was applied to the oocyte and incubated for 3 min while stopping the flow of the perfusion medium. Modulation of GABA currents was expressed as (I(modulator + GABA)/IGABA –1) * 100%. The perfusion system was cleaned between drug applications by washing with DMSO to avoid contamination.” for “amplitude.”"}, "[13]": {"tested_on": "α6N204Cβ2γ2 GABAA receptor", "assay": "Covalent reaction at the functional level (two-electrode voltage clamp, Xenopus oocytes)", "format": "cell-based", "conditions": "after 10 µM 3-NCS and removal of non-covalently reacted 3-NCS", "protocol": "as §1, §4\nas §3, with “amplitude. GABA was applied for 20 s alone or in combination with allosteric compound. 6 ml of the covalent reacting compound was applied to the oocyte and incubated for 3 min while stopping the flow of the perfusion medium. Modulation of GABA currents was expressed as (I(modulator + GABA)/IGABA –1) * 100%. The perfusion system was cleaned between drug applications by washing with DMSO to avoid contamination.” for “amplitude.”"}, "[14]": {"tested_on": "α6S203Cβ2γ2 GABAA receptor", "assay": "Covalent reaction at the functional level (two-electrode voltage clamp, Xenopus oocytes)", "format": "cell-based", "conditions": "after 10 µM 3-NCS and removal of non-covalently reacted 3-NCS", "protocol": "as §1, §4\nas §3, with “amplitude. GABA was applied for 20 s alone or in combination with allosteric compound. 6 ml of the covalent reacting compound was applied to the oocyte and incubated for 3 min while stopping the flow of the perfusion medium. Modulation of GABA currents was expressed as (I(modulator + GABA)/IGABA –1) * 100%. The perfusion system was cleaned between drug applications by washing with DMSO to avoid contamination.” for “amplitude.”"}, "[15]": {"biological_target": "T1, α1S205Cβ2γ2 GABAA receptor", "set-up": "method as in PMID 19804380", "conditions": "10 µM 3-NCS; cited from earlier work"}, "[16]": {"biological_target": "T2, α1T206Cβ2γ2 GABAA receptor", "set-up": "method as in PMID 19804380", "conditions": "10 µM 3-NCS; cited from earlier work"}}}
{"compound": "CN1C(=O)C(N=C=S)N=C(c2ccccc2)c2cc([N+](=O)[O-])ccc21", "note": "(centres unmarked) [3-NCS]", "values": [{"measurement": "activation at 10 µM", "setting": "[1]", "result": "60 ± 43", "unit": "%"}, {"measurement": "activation at 10 µM", "setting": "[2]", "result": "119 ± 51", "unit": "%"}, {"measurement": "activation at 10 µM", "setting": "[3]", "result": "1 ± 10", "unit": "%"}, {"measurement": "activation at 10 µM", "setting": "[4]", "result": "35 ± 10", "unit": "%"}, {"measurement": "activation at 10 µM", "setting": "[5]", "result": "53 ± 29", "unit": "%"}, {"measurement": "Ki", "setting": "α2β2γ2 receptors", "result": "1.55 ± 0.25", "unit": "µM"}, {"measurement": "Irreversible change of GABA current amplitude after 3-NCS (in words)", "setting": "[6]", "result": "failed to show any changes in the current amplitude"}, {"measurement": "% allosteric modulation, 3-NCS", "setting": "[7]", "result": "4±4", "unit": "%"}, {"measurement": "% allosteric modulation, 3-NCS", "setting": "[8]", "result": "15±11", "unit": "%"}, {"measurement": "% allosteric modulation, 3-NCS", "setting": "[9]", "result": "28±16", "unit": "%"}, {"measurement": "% allosteric modulation, 3-NCS", "setting": "[10]", "result": "46±17", "unit": "%"}, {"measurement": "% allosteric modulation, 3-NCS", "setting": "[11]", "result": "23±18", "unit": "%"}, {"measurement": "% allosteric modulation, 3-NCS", "setting": "[12]", "result": "10±5", "unit": "%"}, {"measurement": "% allosteric modulation, 3-NCS", "setting": "[13]", "result": "−4±6", "unit": "%"}, {"measurement": "% allosteric modulation, 3-NCS", "setting": "[14]", "result": "0±2", "unit": "%"}, {"measurement": "Covalent reaction with 3-NCS (in words)", "setting": "[15]", "result": "resulted in covalent reaction"}, {"measurement": "Covalent reaction with 3-NCS (in words)", "setting": "[16]", "result": "resulted in covalent reaction"}]}
